This note sets out measurements from patent US8546414B2, “Ion channel modulators and methods of use” (Vertex Pharmaceuticals Incorporated, priority 2004, dated 2013).

Common to all, as to format: cell-based
The target in one assay is NaV1.8 (Homo sapiens, UniProt Q9Y5Y9). The assay can be described thus: VIPR optical membrane potential assay, NaV1.8 (other subtypes in an analogous mode). As to conditions: Table 9, NaV 1.8 receptors. A digest of the protocol:
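Cells expressing the NaV subtype stained with coumarin and DiSBAC2(3) membrane-potential dyes, then incubated with test compound for 20-30 minutes. Depolarization evoked by sodium addback and read optically on VIPR; block measured as reduced membrane-potential response, with tetracaine as positive control.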

For another assay, the target named is T1, NaV1.3 (Homo sapiens, UniProt Q9NY46).
T1 construct: expressed in transfected cells; host or cells: HEK293
Description: VIPR optical membrane potential assay with electrical stimulation, NaV1.3. As to conditions: Table 9, NaV 1.3 receptors. A digest of the protocol:
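HEK293 cells stably expressing NaV1.3, stained with CC2-DMPE (10 μM final) then DiSBAC2(3) with ABSC1, 30 min each at RT; compounds added with oxonol. Electrical stimulation for 3 s; 460/580 nm background-subtracted emission ratio Rf/Ri, normalised to tetracaine (positive) and untreated (negative) controls.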

In a further assay the target is T2, CaV2.2 (Homo sapiens, UniProt Q00975).
T2 construct: expressed in transfected cells; host or cells: HEK293
Description: VIPR optical membrane potential assay with electrical stimulation, CaV2.2. As to conditions: Table 9, CaV 2.2 receptors. A digest of the protocol:
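HEK293 cells stably expressing CaV2.2 stained with CC2-DMPE/DiSBAC2(3) voltage-sensitive dyes (10 μM final CC2-DMPE, 30 min, RT), then compound added and cells electrically stimulated for 3-5 s. Read-out: background-subtracted 460/580 nm emission ratio; response R=Rf/Ri (post- vs pre-stimulus ratio); antagonism seen as reduced response.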

T2 sequence (Q00975 whole entry): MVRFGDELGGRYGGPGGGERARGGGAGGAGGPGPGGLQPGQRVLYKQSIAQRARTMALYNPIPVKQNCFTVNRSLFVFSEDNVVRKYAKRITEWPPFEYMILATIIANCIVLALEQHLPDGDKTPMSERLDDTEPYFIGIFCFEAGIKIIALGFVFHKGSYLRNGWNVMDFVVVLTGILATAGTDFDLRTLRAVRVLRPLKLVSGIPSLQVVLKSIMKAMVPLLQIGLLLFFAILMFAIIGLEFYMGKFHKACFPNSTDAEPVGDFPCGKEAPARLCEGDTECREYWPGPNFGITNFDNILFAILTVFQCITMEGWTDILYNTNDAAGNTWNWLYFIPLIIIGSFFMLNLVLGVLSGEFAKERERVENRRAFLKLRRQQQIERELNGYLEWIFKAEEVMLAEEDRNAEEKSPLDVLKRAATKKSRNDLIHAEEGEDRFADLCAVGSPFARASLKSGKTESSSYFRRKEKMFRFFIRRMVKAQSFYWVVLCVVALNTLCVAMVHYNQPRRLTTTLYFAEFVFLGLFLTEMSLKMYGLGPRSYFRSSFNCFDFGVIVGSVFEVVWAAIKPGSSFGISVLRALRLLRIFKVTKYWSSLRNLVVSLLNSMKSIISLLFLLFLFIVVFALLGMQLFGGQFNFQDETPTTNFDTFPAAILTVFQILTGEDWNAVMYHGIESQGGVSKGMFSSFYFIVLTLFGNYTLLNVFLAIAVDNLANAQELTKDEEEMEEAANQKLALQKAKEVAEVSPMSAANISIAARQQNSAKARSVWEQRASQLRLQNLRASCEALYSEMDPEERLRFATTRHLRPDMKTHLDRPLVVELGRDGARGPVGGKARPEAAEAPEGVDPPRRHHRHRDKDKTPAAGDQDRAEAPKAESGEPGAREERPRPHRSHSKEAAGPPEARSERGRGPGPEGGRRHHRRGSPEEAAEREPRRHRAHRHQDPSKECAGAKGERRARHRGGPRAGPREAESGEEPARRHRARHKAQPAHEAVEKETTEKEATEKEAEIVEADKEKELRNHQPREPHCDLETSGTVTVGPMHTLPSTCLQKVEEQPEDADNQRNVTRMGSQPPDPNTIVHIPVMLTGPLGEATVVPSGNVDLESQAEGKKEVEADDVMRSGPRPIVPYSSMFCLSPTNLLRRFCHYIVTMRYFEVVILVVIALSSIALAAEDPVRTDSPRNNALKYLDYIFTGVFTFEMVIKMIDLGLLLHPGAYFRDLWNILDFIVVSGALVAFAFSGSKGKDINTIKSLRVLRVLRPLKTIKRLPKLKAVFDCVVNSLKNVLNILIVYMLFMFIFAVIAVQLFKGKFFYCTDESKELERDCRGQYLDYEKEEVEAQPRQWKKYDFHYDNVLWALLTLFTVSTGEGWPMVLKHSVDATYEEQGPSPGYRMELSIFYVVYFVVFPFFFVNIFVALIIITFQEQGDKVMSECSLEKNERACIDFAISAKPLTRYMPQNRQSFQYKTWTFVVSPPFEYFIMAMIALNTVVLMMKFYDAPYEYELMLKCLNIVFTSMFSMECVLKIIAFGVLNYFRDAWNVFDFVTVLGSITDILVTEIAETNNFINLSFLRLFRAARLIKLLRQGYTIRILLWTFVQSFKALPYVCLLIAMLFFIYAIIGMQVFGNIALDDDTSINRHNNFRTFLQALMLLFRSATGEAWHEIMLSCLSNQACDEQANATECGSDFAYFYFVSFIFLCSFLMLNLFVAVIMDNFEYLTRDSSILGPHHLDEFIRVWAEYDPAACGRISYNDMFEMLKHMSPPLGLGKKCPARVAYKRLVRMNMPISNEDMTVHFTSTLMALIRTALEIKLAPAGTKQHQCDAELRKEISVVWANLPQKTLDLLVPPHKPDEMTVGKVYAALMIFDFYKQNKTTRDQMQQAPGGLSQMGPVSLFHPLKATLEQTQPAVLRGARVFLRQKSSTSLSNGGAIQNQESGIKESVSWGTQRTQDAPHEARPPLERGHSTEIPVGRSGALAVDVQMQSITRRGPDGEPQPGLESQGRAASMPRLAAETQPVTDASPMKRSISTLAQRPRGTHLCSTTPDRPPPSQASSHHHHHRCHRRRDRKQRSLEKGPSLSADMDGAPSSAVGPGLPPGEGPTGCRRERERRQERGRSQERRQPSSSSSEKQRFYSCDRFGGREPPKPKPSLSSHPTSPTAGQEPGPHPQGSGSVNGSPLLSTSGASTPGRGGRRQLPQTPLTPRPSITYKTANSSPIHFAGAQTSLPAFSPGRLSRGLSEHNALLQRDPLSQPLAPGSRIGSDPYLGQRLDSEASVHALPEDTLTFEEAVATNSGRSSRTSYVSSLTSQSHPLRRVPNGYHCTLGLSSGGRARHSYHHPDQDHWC
T2 sequence (P54284 whole entry partner): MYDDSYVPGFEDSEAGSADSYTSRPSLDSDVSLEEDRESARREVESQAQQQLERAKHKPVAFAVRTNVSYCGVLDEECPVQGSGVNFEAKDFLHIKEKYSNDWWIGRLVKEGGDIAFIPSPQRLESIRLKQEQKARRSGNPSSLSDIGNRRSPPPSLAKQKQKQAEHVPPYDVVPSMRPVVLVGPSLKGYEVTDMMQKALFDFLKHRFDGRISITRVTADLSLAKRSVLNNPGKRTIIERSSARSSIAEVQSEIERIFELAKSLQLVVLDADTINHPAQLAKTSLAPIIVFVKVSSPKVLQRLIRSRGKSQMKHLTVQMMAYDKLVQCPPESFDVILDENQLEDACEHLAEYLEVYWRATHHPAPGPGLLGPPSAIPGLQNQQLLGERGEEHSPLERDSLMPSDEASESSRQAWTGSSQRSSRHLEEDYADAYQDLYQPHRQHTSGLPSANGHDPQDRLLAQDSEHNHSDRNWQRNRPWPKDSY
T2 sequence (P54289 25-956 partner limits assumed): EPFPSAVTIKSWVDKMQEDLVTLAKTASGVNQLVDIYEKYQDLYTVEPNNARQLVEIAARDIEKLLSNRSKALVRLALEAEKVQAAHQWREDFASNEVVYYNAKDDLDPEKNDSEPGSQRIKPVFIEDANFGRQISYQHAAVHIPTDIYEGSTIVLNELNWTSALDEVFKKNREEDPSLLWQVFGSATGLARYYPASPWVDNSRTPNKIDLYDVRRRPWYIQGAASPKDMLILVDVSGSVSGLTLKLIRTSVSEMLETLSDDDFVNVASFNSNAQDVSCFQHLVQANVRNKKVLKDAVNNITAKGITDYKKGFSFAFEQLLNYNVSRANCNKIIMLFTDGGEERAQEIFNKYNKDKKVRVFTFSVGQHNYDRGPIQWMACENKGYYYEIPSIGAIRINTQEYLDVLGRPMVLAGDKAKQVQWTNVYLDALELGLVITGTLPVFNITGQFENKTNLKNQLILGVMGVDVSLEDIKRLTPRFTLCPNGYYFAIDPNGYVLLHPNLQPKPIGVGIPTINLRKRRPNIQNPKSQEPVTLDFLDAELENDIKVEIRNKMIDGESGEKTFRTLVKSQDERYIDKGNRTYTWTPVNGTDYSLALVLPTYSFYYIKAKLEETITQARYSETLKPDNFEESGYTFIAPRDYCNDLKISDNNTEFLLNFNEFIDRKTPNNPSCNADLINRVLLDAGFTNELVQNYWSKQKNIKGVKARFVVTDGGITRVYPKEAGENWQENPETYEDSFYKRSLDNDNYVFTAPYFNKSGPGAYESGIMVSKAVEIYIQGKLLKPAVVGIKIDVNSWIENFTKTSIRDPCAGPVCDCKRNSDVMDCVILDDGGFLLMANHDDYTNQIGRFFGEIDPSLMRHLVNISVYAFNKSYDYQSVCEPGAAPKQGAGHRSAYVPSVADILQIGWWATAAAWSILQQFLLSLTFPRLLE
T2 sequence (P54289 957-1103 partner limits assumed): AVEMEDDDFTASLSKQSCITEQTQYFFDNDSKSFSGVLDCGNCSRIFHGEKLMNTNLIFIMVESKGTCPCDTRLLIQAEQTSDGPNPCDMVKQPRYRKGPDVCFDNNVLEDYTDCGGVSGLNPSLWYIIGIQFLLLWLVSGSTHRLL

For the compound `CC(C)N(C(=O)c1cnc(N2CCOCC2)nc1-c1ccccc1F)c1cccc(N(C)C)c1` [compound 111], the values for the IC50 on NaV1.8, at NaV1.3 and against CaV2.2 were more than 10 µM, more than 10 µM and more than 10000 nM, respectively.

Take `CC(C)N(C(=O)c1cnc(N2CCCCC2)nc1-c1ccccc1F)c1cccc2ccccc12` [compound 112]: the 50% inhibitory concentration (IC50) (as a rule, the concentration that gives 50% inhibition) is more than 10 µM against NaV1.8, 2 to 10 µM against NaV1.3 and more than 10000 nM at CaV2.2.

Consider `CCC(COC)N(Cc1ccccc1)C(=O)c1cnc(N2CCOCC2)nc1-c1ccccc1F` (stereo not drawn) [compound 113], for which the IC50 against NaV1.8 is more than 10 µM; at NaV1.3, 2 to 10 µM; at CaV2.2, more than 10000 nM.

`O=C(c1cnc(N2CCC3CCCCC3C2)nc1-c1ccccc1F)N(Cc1cccc(-c2ccncc2)c1)C1CC1` (stereo not drawn) [compound 114]: the values for the IC50 on NaV1.8, at NaV1.3 and on CaV2.2 were more than 10 µM, more than 10 µM and less than 2000 nM, respectively.

With `COc1cccc(N(C(=O)c2cnc(N3CCCCC3)nc2-c2ccccc2Cl)C2CCCCC2)c1` [compound 115], the IC50 at NaV1.8 was more than 10 µM; on NaV1.3 it was more than 10 µM; on CaV2.2, 2000 to 10000 nM.

Regarding `COc1cccc(N(C(=O)c2cnc(N3CCCCC3)nc2-c2ccccc2F)C2CCC2)c1` [compound 116], the IC50 at NaV1.8 is more than 10 µM; on NaV1.3 it was 2 to 10 µM; against CaV2.2 it was 2000 to 10000 nM.

In the case of `CC(C)N(Cc1ccccc1)C(=O)c1cnc(N2CCCCC2)nc1-c1ccccc1F` [compound 117], the IC50 at NaV1.8 was 2 to 10 µM; at NaV1.3, 2 to 10 µM; against CaV2.2 it was less than 2000 nM.

As for `CC(C)N(Cc1ccccc1)C(=O)c1cnc(NCCc2ccc(F)cc2)nc1-c1ccccc1F` [compound 118], the half-inhibitory concentration (IC50) on NaV1.8 is more than 10 µM; at NaV1.3, 2 to 10 µM; against CaV2.2, less than 2000 nM.

On to `CC(C)N(Cc1ccc(C(C)(C)C)cc1)C(=O)c1cnc(N2CCCCC2)nc1-c1ccccc1Cl` [compound 119], for which the half-inhibitory concentration (IC50) was more than 10 µM at NaV1.8, more than 10 µM against NaV1.3 and 2000 to 10000 nM on CaV2.2.

Regarding `CC(C)N(Cc1ccc2c(c1)OCO2)C(=O)c1cnc(N2CCC3CCCCC3C2)nc1-c1ccccc1F` (stereo not drawn) [compound 120], the 50% inhibitory concentration (IC50) against NaV1.8 is more than 10 µM; against NaV1.3, 2 to 10 µM; against CaV2.2, less than 2000 nM.

For the compound `O=C(NCCOc1ccccc1)c1cnc(N2CCOCC2)nc1-c1ccc(Oc2ccccc2)cc1` [compound 121], the 50% inhibitory concentration (IC50) on NaV1.8 was more than 10 µM; against NaV1.3 it was 2 to 10 µM; on CaV2.2, 2000 to 10000 nM.

Regarding `CC(C)N(Cc1ccc(C(C)(C)C)cc1)C(=O)c1cnc(N2CCCCC2)nc1-c1ccccc1F` [compound 122], the 50% inhibitory concentration (IC50) against NaV1.8 was more than 10 µM; on NaV1.3, more than 10 µM; against CaV2.2, 2000 to 10000 nM.

Take `CC(C)N(Cc1ccccc1)C(=O)c1cnc(N2CCOCC2)nc1-c1ccc(Oc2ccccc2)cc1` [compound 123]: the IC50 against NaV1.8 is more than 10 µM; at NaV1.3, more than 10 µM; against CaV2.2, 2000 to 10000 nM.

With `O=C(c1cnc(N2CCOCC2)nc1-c1ccccc1F)N(Cc1ccc(C(F)(F)F)cc1)C1CC1` [compound 124], the IC50 was more than 10 µM on NaV1.8, 2 to 10 µM on NaV1.3 and 2000 to 10000 nM at CaV2.2.

Turning to `CC(C)N(C(=O)c1cnc(N2CCCCC2)nc1-c1ccccc1F)c1cccc(C#N)c1` [compound 125], the IC50 against NaV1.8 was more than 10 µM; on NaV1.3, more than 10 µM; at CaV2.2 it was 2000 to 10000 nM.

As to `CN1CCN(c2ncc(C(=O)N(Cc3ccc(C(F)(F)F)cc3)C3CC3)c(-c3ccccc3F)n2)CC1` [compound 126], the half-inhibitory concentration (IC50) on NaV1.8 was more than 10 µM; on NaV1.3, more than 10 µM; on CaV2.2, 2000 to 10000 nM.

As for `COc1cccc(N(C(=O)c2cnc(N3CCCCC3)nc2-c2ccccc2F)C2CCCCC2)c1` [compound 127], the IC50 on NaV1.8 is more than 10 µM; against NaV1.3, 2 to 10 µM; against CaV2.2, 2000 to 10000 nM.

As for `O=C(c1cnc(N2CCOCC2)nc1-c1ccccc1F)N(Cc1ccc(F)cc1)C1CC1` [compound 128], the values for the 50% inhibitory concentration (IC50) against NaV1.8, on NaV1.3 and on CaV2.2 were more than 10 µM, 2 to 10 µM and 2000 to 10000 nM, respectively.

With `CN1CCN(c2ncc(C(=O)N(Cc3ccccc3)C3CC3)c(-c3ccccc3F)n2)CC1` [compound 129], the half-inhibitory concentration (IC50) against NaV1.8 was more than 10 µM; against NaV1.3, more than 10 µM; against CaV2.2, more than 10000 nM.

As for `CC(C)N(Cc1ccccc1)C(=O)c1cnc(N2Cc3ccccc3C2)nc1-c1ccccc1F` [compound 130], the IC50 against NaV1.8 is more than 10 µM; at NaV1.3 it was 2 to 10 µM; against CaV2.2, 2000 to 10000 nM.

Take `COc1cccc(CN(C(=O)c2cnc(N3CCSCC3)nc2-c2ccccc2F)C(C)C)c1` [compound 131]: the IC50 at NaV1.8 was 2 to 10 µM; on NaV1.3, 2 to 10 µM; against CaV2.2 it was less than 2000 nM.

Take `CC(C)N(Cc1ccccc1)C(=O)c1cnc(Nc2cccc(O)c2)nc1-c1ccccc1F` [compound 132]: the IC50 is more than 10 µM on NaV1.8, more than 10 µM against NaV1.3 and more than 10000 nM against CaV2.2.

For `COc1cccc(N(C(=O)c2cnc(N3CCCCC3)nc2-c2ccccc2F)C(C)C)c1` [compound 133], the 50% inhibitory concentration (IC50) was more than 10 µM against NaV1.8, 2 to 10 µM at NaV1.3 and 2000 to 10000 nM at CaV2.2.

On to `COc1cccc(CN(C(=O)c2cnc(N3Cc4ccccc4C3)nc2-c2ccccc2F)C(C)C)c1` [compound 134], for which the IC50 against NaV1.8 was more than 10 µM; against NaV1.3 it was 2 to 10 µM; on CaV2.2 it was less than 2000 nM.

Regarding `CC(C)N(Cc1ccccc1)C(=O)c1cnc(NCc2cccc3ccccc23)nc1-c1ccccc1F` [compound 135], the IC50 was more than 10 µM against NaV1.8, more than 10 µM on NaV1.3 and 2000 to 10000 nM at CaV2.2.

With `O=C(c1cnc(N2CCCCC2)nc1-c1ccccc1F)N(Cc1ccccc1)C1CCCC1` [compound 136], the concentration for half-maximal inhibition (IC50) on NaV1.8 was more than 10 µM; against NaV1.3 it was 2 to 10 µM; against CaV2.2, 2000 to 10000 nM.

`CC(C)N(Cc1ccc(N2CCCC2)cc1)C(=O)c1cnc(N2CCC3CCCCC3C2)nc1-c1ccccc1F` (stereo not drawn) [compound 137]: the IC50 was more than 10 µM against NaV1.8, more than 10 µM against NaV1.3 and less than 2000 nM against CaV2.2.

Turning to `O=C(c1cnc(N2CCOCC2)nc1-c1ccccc1F)N(Cc1cccnc1)C1CC1` [compound 138], the values for the half-maximal inhibitory concentration (IC50) against NaV1.8, against NaV1.3 and on CaV2.2 were more than 10 µM, more than 10 µM and more than 10000 nM, respectively.

Take `CC(C)N(Cc1ccccc1)C(=O)c1cnc(N2CCOCC2)nc1-c1cc(F)cc(F)c1` [compound 139]: the figures for the IC50 on NaV1.8, on NaV1.3 and against CaV2.2 were 2 to 10 µM, 2 to 10 µM and 2000 to 10000 nM, respectively.

Turning to `CC(C)N(C(=O)c1cnc(N2CCCCC2)nc1-c1ccccc1F)c1cccc([N+](=O)[O-])c1` [compound 140], the IC50 is more than 10 µM against NaV1.8, 2 to 10 µM at NaV1.3 and 2000 to 10000 nM on CaV2.2.

As for `CC(C)N(C(=O)c1cnc(N2CCC3CCCCC3C2)nc1-c1ccccc1F)C1CCSC1` (stereo not drawn) [compound 141], the concentration for half-maximal inhibition (IC50) at NaV1.8 was more than 10 µM; at NaV1.3, more than 10 µM; against CaV2.2 it was 2000 to 10000 nM.

Consider `COc1ccc(CN(C(=O)c2cnc(N3CCOCC3)nc2-c2ccccc2F)C2CC2)cc1` [compound 142], for which the IC50 is less than 2 µM against NaV1.8, less than 2 µM against NaV1.3 and less than 2000 nM against CaV2.2.

`Cc1nc(N2CCOCC2)nc(-c2ccccc2F)c1C(=O)N(Cc1ccccc1)C1CCCC1` [compound 143]: the concentration for half-maximal inhibition (IC50) on NaV1.8 fell in the range of 2 to 10 µM; against NaV1.3 it was 2 to 10 µM; against CaV2.2 it was 2000 to 10000 nM.
